Results from patent US8871796B2, “Diaryl ether derivatives as notch sparing gamma secretase inhibitors” (Merck Sharp & Dohme Corp., priority 2009, dated 2014).
Like-named read-outs stand apart in the source and are kept apart here.

Assays:
[1] = Pharmacokinetics in rats, IV or PO dosing, plasma LC-MS/MS; type: in vivo, Sprague Dawley rats; settings: for clearance / half-life / bioavailability: Sprague Dawley; for clearance: intravenous, read-out: Rat Cl; for AUC(Norm)(0-x): dose-normalised
Protocol: Pharmacokinetic parameters are determined in Sprague Dawley rats, Beagle dogs or Rhesus monkeys by dosing the compounds intravenously (IV) or orally (PO). A dose of 0.25 mg/kg is administered either IV or PO to each subject with a dosing solution of 0.25 mg/ml in a 30:70 v/v mixture of PEG400:40% Captisol®. Plasma samples are collected at 5 min. (IV only), 15 min., 30 min., 1 h, 2 h, 4 h, 6 h, 8 h, 24 h, 48 h, 72 h, 96 h, 120 h, 144 h, and 168 h. Samples are analyzed by LC-MS/MS (API5000™) to determine the concentration in plasma. Briefly, 50 μL plasma is precipitated with 200 μL acetonitrile containing an appropriate internal standard. Samples are filtered, 500 pt of water is added to each sample and 10 μl, of this is injected on a C18 column (2.0 mm×30 mm, 3 μm particle size) and eluted using a gradient LC method with water containing 0.1% formic acid as the aqueous mobile phase, and acetonitrile containing 0.1% formic acid as the organic phase. Electrospray ionization with multiple reaction monitoring is used for MS/MS detection. Plasma concentration of the compounds is determined using a standard curve that was prepared similar to the samples in the respective matrix. Non-compartmental analysis is performed using Watson 7.2 to generate the PK parameters.

[2] = APP processing: AlphaLisa assay of secreted Aβ40 and Aβ42 from SP4CT cells; type: cell-based; settings: Homo sapiens, SH-SY5Y cells expressing amyloid β protein (SP4CT cells)
Procedure, shortened: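 Secreted Aβ40 and Aβ42 were quantified separately by AlphaLisa luminescence, pairing streptavidin donor beads bearing biotinylated 4G8 with G210 or 12F4 acceptor beads. Samples were conditioned media from compound-treated SH-SY5Y cells expressing amyloid β protein (SP4CT).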

[3] = plasma, rat, 0.25 mg/kg IV or PO
[4] = read-out: IC50, inhibition of production of Aβ40 peptide
[5] = read-out: IC50, inhibition of production of Aβ42 peptide

Compound | clearance ([1]; rat, 0.25 mg/kg, plasma) | half-life ([1]; rat, 0.25 mg/kg, plasma) | AUC(Norm)(0-x) ([1]; rat, 0.25 mg/kg, plasma) | IC50 [2, 4] | IC50 [2, 5] | also measured
CCn1nc(-c2cccc(C(C)(C)NS(=O)(=O)CC(F)(F)F)c2)cc1CN1CCC(C(F)(F)F)CC1 [Example 23 from WO 2004/089911 A1, reference compound] | 120 mL/min/kg | 5.4 h | 0.25 µM·kg·h/mg | – | – | –
CCn1nc(COc2ccc(C#N)cc2)cc1-c1cccc(C(C)(C)NS(=O)(=O)NC(F)(F)F)c1 [Example 27 from WO 2004/089911 A1, reference compound] | 35 mL/min/kg | 4.8 h | 0.92 µM·kg·h/mg | – | – | bioavailability [1, 3]: 28%
CCn1nc(COc2ccc(F)cc2)cc1-c1cccc(C(C)(C)NS(=O)(=O)NC2CCC2)c1 [Example 2 from WO 2004/089911 A1, reference compound] | 43 mL/min/kg | 2.3 h | 0.79 µM·kg·h/mg | – | – | bioavailability [1, 3]: 9%
N-(1-{3-[1-ethyl-3-(4-fluorophenoxy)-1H-pyrazol-5-yl]phenyl}-1-methylethyl)-2,2,2-trifluoroethanesulfonamide [Example 53] | – | – | 35 µM·kg·h/mg | – | – | Rat Cl ([1]; 0.25 mg/kg, plasma): 1 mL/min/kg; % F ([1]; rat, 0.25 mg/kg IV or PO): 70%; t1/2 ([1]; rat, 0.25 mg/kg, plasma): 16 h
CCn1nc(Oc2ccc(C(F)(F)F)cc2)cc1-c1cccc(C(C)(C)NS(=O)(=O)NCC(F)(F)F)c1 [Example 19, N-[1-(3-{1-ethyl-3-[4-(trifluoromethyl)phenoxy]-1H-pyrazol-5-yl}phenyl)-1-methylethyl]-N′-(2,2,2-trifluoroethyl)sulfamide] | 31 mL/min/kg | 9 h | 0.96 µM·kg·h/mg | < 200 nM | < 200 nM | bioavailability [1, 3]: 75%
CCn1nc(-c2cccc(C3(NS(=O)(=O)NCC(F)(F)F)COC3)c2)cc1Oc1ccc(C(F)(F)F)cc1 [Example 96, N-[3-(3-{1-ethyl-5-[4-(trifluoromethyl)phenoxy]-1H-pyrazol-3-yl}phenyl)oxetan-3-yl]-N′-(2,2,2-trifluoroethyl)sulfamide] | 41 mL/min/kg | 2.8 h | 0.09 µM·kg·h/mg | < 200 nM | < 200 nM | bioavailability [1, 3]: 12%
CCn1nc(-c2cccc(C(C)(C)NS(=O)(=O)CC(F)(F)F)c2)c(C=O)c1Oc1ccc(C(F)(F)F)cc1 [Example 118, N-[2-(3-{1-ethyl-4-formyl-5-[4-(trifluoromethyl)phenoxy]-1H-pyrazol-3-yl}phenyl)propan-2-yl]-2,2,2-trifluoroethanesulfonamide] | – | – | – | < 200 nM | < 200 nM | –
CCn1nc(-c2cccc(C(C)(C)NS(=O)(=O)CC(F)(F)F)c2)cc1Oc1ccccc1 [Example 57, N-{1-[3-(1-ethyl-5-phenoxy-1H-pyrazol-3-yl)phenyl]-1-methylethyl}-2,2,2-trifluoroethanesulfonamide] | – | – | – | < 200 nM | < 200 nM | –
CCn1nc(Oc2ccc(C(F)(F)F)cc2)cc1-c1ccc2c(c1)CC(NS(=O)(=O)NCC(F)(F)F)C2 (centres unmarked) [Example 120, (N-[5-(1-Ethyl-3-(4-trifluoromethylphenoxy)-1H-pyrazol-5-yl)-2,3-dihydro-1H-inden-2-yl]-N′-(2,2,2-trifluoroethyl)sulfuric diamide)] | – | – | – | < 200 nM | < 200 nM | –
CCn1nc(Oc2ccc(C(F)(F)F)cc2)cc1-c1cccc(C(C)(C)NS(=O)(=O)N2CCCC2)c1 [Example 26, N-[1-(3-{1-ethyl-3-[4-(trifluoromethyl)phenoxy]-1H-pyrazol-5-yl}phenyl)-1-methylethyl]pyrrolidine-1-sulfonamide] | – | – | – | < 200 nM | < 200 nM | –
O=S(=O)(CC(F)(F)F)NC1(c2cccc(-c3cc(Oc4ccc(C(F)(F)F)cc4)n(CC4CCOCC4)n3)c2)COC1 [Example 139, N-(3-{3-[5-(4-trifluoromethylphenoxy)-1-(tetrahydro-2H-pyran-4-ylmethyl)-1H-pyrazol-3-yl]phenyl}oxetan-3-yl)-2,2,2-trifluoroethanesulfonamide] | – | – | – | < 200 nM | < 200 nM | –
CCn1nc(-c2cccc(C(C)(C)NS(=O)(=O)CC(F)(F)F)c2)cc1Oc1ccc(CNCc2ccncc2)cc1 [Example 89, N-(1-{3-[1-ethyl-5-(4-{[(pyridin-4-ylmethyl)amino]methyl}phenoxy)-1H-pyrazol-3-yl]phenyl}-1-methylethyl)-2,2,2-trifluoroethanesulfonamide] | – | – | – | < 200 nM | < 200 nM | –
CCCNS(=O)(=O)NC(C)(C)c1cccc(-c2cc(Oc3ccc(C(F)(F)F)cc3)nn2CC)c1 [Example 23, N-[1-(3-{1-ethyl-3-[4-(trifluoromethyl)phenoxy]-1H-pyrazol-5-yl}phenyl)-1-methylethyl]-N′-propylsulfamide] | – | – | – | < 200 nM | < 200 nM | –
CCn1nc(-c2cncc(C3(NS(=O)(=O)CC(F)(F)F)CC3)c2)cc1Oc1ccc(C(F)(F)F)cc1 [Example 52, N-[1-(5-{1-ethyl-5-[4-(trifluoromethyl)phenoxy]-1H-pyrazol-3-yl}pyridin-3-yl)cyclopropyl]-2,2,2-trifluoroethanesulfonamide] | – | – | – | < 200 nM | < 200 nM | –
CCn1nc(-c2cccc(C(C)(C)NS(=O)(=O)CC(F)(F)F)c2)cc1Oc1ccc(CNc2ccc(OC)cc2)cc1 [Example 82] | – | – | – | < 200 nM | < 200 nM | –
CCn1nc(-c2cccc(C(C)(C)NS(=O)(=O)NCC(C)C)c2)cc1Oc1ccc(C(F)(F)F)cc1 [Example 9, N-[1-(3-{1-ethyl-5-[4-(trifluoromethyl)phenoxy]-1H-pyrazol-3-yl}phenyl)-1-methylethyl]-N′-isobutylsulfamide] | – | – | – | < 200 nM | < 200 nM | –
